Results published in US10383859B2, “Benzo[d]thiazole derivative or salt thereof, and pharmaceutical composition including same” (Yuhan Corporation, priority 2016, dated 2019).
pIC50: −log10 of the molar value.

What follows are compounds tested on A549 cells (assay: Cell migration assay (24-well transwell, laminin)). Details: Homo sapiens, A549, 6 h, laminin 10 μg/mL in lower well, test compounds 0.39˜100 μM, migrated cells counted, read-out: Inhibitory activity against cell migration.
Assay type: cell-based, human
Procedure, shortened: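 Serum-free RPMI1640 transwell (8.0 μm pore) with laminin (10 μg/mL) in lower well; A549 cells (1×10^6 cells/mL) and compounds (0.39–100 μM) in both chambers, 6 h at 37 °C. Hematoxylin-stained cells on membrane underside counted at three fields (×20); IC50 by non-linear regression.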

pIC50	Structure (SMILES)
> 6.00	Cc1ccc(CCN(Cc2ccc(C(=O)O)cc2)c2nc3cccc(F)c3s2)cc1 [Example 6, 4-(((7-fluorobenzo[d]thiazol-2-yl)(4-methylphenylethyl)amino)methyl)benzoic acid]
< 5.00	O=C(O)c1ccc(CN(CCc2cc(F)c(F)c(F)c2)c2nc3cccc(F)c3s2)cc1 [Example 36, 4-({(7-fluorobenzo[d]thiazol-2-yl)[2-(3,4,5-trifluorophenyl)ethyl]amino}methyl)benzoic acid]
> 6.00	COc1ccc(CCN(Cc2ccc(C(=O)O)cc2)c2nc3cccc(F)c3s2)c(F)c1F [Example 43, 4-({[2-(2,3-difluoro-4-methoxyphenyl)ethyl](7-fluorobenzo[d]thiazol-2-yl)amino}methyl)benzoic acid]
> 6.00	COc1ccc(CCN(Cc2ccc(C(=O)O)cc2)c2nc3cc(F)c(F)c(F)c3s2)cc1 [Example 87, 4-{[[2-(4-methoxyphenyl)ethyl](5,6,7-trifluorobenzo[d]thiazol-2-yl)amino]methyl}benzoic acid]

The next lines start with the compound.

Structure (SMILES)	pIC50
COc1ccc(CCN(c2nc3ccc(Cl)c(F)c3s2)C(C)c2ccc(C(=O)O)cc2)cc1 (centres unmarked) [Example 102, 4-(1-{(6-chloro-7-fluorobenzo[d]thiazol-2-yl)[2-(4-methoxyphenyl)ethyl]amino}ethyl)benzoic acid]	< 5.00
COc1ccc(CCN(Cc2ccc(C(=O)O)cc2)c2nc3ccc(C)cc3s2)cc1 [Example 97, 4-({[2-(4-methoxyphenyl)ethyl](6-methyl-benzo[d]thiazol-2-yl)amino}methyl)benzoic acid]	< 5.00
COc1ccc(CCN(Cc2ccc(C(=O)O)cc2)c2nc3ccc([N+](=O)[O-])cc3s2)cc1 [Example 79, 4-({[2-(4-methoxyphenyl)ethyl](6-nitro-benzo[d]thiazol-2-yl)amino}methyl)benzoic acid]	> 6.00
COc1ccc(CCN(Cc2ccc(C(=O)O)cc2)c2nc3cccc(F)c3s2)cc1 [Example 1, 4-({(7-fluorobenzo[d]thiazol-2-yl)[2-(4-methoxyphenyl)ethyl]amino}methyl)benzoic acid]	> 6.00
